Experimental data reported in US20240158370A1, “CK1 alpha AND DUAL CK1 alpha / GSPT1 DEGRADING COMPOUNDS” (Innovo Therapeutics, Inc., priority 2022, published 2024).

Experiments:
[1] = molecular target: GSPT1 (Homo sapiens, UniProt P15170+Q96SW2); assay: HiBiT degradation assay, GSPT1, Procedure B (Molt 4_hGSPT1_HiBIT cells); assay type: cell-based; design: Molt 4_hGSPT1_HiBIT N-terminus tagged cells were generated using CRISPR technology; endogenous in cells; host or cells: Molt 4 cells, CRISPR-edited; conditions: six hours
Procedure: Molt 4_hGSPT1_HiBIT N-terminus tagged cells were generated using CRISPR technology. Cells were maintained in RPMI media (Thermo Fisher Scientific, Catalog #11875-093) containing 10% Fetal Bovine Serum (Thermo Fisher Scientific, Catalog #16140071) 1% Penicillin-Streptomycin (Thermo Fisher Scientific, Catalog #25200056). Cells were maintained at 37° C. in a 5% CO2 environment.
Compounds were spotted onto Cornin 384-Well, Cell Culture-Treated, Flat-Bottom, Low Flange Microplate (Fisher Scientific, Catalog #07-201-013) using a Tecan D300e digital dispenser. Ten-point dose response curves spanning from 10 μM to 0.005 μM with a 0.1% DMSO tolerance were used.
Cells were centrifuged for 5 minutes at 1200 RPMs. Cell culture media was aspirated off and cells were resuspended with RPMI+10% FBS. Cell density was determined using a Denovix CellDrop BF cell counter. Cell density was adjusted to 1×10^6 cells/ml. 40 μl of cells was added to compound treated tissue culture plates and incubated for six hours at 37° C. After six hours, cell culture plates were removed from tissue culture incubator and cooled to room temperature. 40 μl of Nano-GloHiBiT Lytic Detection Reagent (Promega, Catalog #N3040) was added to each well. Plates were placed on an orbital shaker (600 rpm) for 20 minutes. Luminescence was measured using an Envsion plate reader (Perkin Elmer). IC50 curves and Ymin were generated using a 4-parameter curve fit with GraphPad Prism software (Prism Corporation).
Results from the HiBiT assay (DC50 (nM) and Ymin (% remaining)) are shown below. All CK1α data was generated according to Procedure A. GSPT1 data for Examples 1-600, 603-620 and 703-705 was generated according to Procedure A. GSPT1 data for Examples 601, 621-702 and 706-735 was generated according to Procedure B.

[2] = molecular target: T1, CK1α (Homo sapiens, UniProt P48729+Q96SW2); assay: HiBiT degradation assay, CK1α, Procedure A; assay type: cell-based; conditions: six hours
T1 construct: CSNK1A1-HiBit KI HEK293(LgBit) Cells; host or cells: HEK293(LgBit) knock-in cells
How it was run: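 DC50 and Ymin (% remaining) were derived by four-parameter fitting of luminescence data. The data come from a six-hour, 37° C compound exposure of cells in DMEM/10% FBS over a ten-point range, 10 μM to 0.005 μM, followed by Nano-Glo HiBiT lytic detection.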

GSPT1, sequence (P15170 whole entry): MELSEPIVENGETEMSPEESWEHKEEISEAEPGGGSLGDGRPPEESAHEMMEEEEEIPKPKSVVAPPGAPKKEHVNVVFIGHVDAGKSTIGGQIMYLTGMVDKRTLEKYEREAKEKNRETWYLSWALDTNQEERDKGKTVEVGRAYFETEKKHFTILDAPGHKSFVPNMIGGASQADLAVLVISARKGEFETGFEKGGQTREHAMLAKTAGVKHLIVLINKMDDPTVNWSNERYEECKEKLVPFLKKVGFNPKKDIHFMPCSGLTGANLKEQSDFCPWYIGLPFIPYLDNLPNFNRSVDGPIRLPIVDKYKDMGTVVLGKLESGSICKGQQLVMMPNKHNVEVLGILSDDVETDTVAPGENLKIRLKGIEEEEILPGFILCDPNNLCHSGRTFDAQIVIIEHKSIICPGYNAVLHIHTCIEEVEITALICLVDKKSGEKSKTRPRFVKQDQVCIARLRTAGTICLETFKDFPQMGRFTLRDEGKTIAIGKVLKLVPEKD
GSPT1, sequence (Q96SW2 whole entry): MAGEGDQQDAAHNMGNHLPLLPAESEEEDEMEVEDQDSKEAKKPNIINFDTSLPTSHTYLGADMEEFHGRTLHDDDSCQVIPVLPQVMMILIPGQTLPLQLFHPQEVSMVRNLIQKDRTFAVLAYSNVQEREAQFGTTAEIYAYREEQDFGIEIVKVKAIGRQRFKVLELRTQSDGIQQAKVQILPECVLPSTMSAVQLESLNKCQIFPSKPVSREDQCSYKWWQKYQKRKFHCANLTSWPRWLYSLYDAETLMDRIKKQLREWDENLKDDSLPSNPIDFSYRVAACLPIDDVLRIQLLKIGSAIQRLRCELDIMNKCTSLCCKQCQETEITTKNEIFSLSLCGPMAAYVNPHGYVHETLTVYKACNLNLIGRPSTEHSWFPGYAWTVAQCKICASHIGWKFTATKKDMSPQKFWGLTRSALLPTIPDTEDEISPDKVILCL
GSPT1, sequence (Q16531 whole entry partner): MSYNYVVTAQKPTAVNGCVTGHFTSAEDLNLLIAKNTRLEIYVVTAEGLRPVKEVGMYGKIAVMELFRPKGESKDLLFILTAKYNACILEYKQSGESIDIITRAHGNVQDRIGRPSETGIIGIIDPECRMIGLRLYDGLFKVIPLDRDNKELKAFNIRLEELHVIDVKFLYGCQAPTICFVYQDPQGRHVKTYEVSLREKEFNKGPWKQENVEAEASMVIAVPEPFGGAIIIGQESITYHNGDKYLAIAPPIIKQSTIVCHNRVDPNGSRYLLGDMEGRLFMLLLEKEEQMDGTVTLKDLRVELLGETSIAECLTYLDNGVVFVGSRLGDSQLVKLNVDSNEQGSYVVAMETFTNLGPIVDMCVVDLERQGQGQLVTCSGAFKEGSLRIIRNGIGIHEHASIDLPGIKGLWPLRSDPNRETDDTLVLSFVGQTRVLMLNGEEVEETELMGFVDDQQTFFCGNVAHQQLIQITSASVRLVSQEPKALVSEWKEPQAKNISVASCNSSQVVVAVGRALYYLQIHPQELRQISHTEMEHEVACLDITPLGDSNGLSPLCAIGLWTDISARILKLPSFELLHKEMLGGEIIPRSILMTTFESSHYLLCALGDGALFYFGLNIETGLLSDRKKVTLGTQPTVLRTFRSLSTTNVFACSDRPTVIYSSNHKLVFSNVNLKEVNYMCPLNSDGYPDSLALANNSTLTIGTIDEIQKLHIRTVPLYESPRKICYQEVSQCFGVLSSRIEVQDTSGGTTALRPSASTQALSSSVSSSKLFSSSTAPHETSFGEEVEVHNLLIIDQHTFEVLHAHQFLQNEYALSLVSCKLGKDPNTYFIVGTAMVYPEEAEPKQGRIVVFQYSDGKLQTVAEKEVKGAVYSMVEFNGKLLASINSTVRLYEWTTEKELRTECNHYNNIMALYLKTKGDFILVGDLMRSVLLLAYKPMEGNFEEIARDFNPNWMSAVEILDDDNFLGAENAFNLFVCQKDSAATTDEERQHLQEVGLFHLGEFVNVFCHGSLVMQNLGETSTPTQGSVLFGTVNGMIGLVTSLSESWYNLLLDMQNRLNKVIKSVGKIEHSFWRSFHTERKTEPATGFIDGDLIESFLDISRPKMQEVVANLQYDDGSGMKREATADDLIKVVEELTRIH
T1 sequence (P48729 whole entry): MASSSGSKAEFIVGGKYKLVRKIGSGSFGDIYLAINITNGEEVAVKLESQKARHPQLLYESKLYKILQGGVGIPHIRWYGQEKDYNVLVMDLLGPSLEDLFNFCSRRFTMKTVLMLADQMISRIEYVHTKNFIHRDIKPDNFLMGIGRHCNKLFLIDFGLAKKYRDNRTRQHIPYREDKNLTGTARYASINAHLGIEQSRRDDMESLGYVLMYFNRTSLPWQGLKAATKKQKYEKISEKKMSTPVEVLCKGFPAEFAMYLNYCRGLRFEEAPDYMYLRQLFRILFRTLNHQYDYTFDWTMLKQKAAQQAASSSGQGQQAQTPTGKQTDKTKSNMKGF
T1 sequence (Q96SW2 whole entry): as the sequence (Q96SW2 whole entry) above
T1 sequence (Q16531 whole entry partner): as the sequence (Q16531 whole entry partner) above

Compound | DC50 [1] [nM] | GSPT1 Ymin [1] | CK1α Ymin [2] | DC50 [2] [nM]
Cc1cccc(-c2nc(-c3ccc4c(c3)CN(C3CCC(=O)NC3=O)C4=O)cn2C)c1C (stereo not shown) [Example 650] | < 25 | F (F = >75-100% remaining) | D (D = >10- 25% remaining) | < 25
Cn1cc(-c2ccc3c(c2)CN(C2CCC(=O)NC2=O)C3=O)nc1-c1ccc(F)cc1F (stereo not shown) [Example 653] | ≥ 25 | F (F = >75-100% remaining) | D (D = >10- 25% remaining) | < 25
Cn1cc(-c2ccc3c(c2)CN(C2CCC(=O)NC2=O)C3=O)nc1-c1ccc(C#N)cc1F (stereo not shown) [Example 654] | < 25 | F (F = >75-100% remaining) | D (D = >10- 25% remaining) | < 25
Cn1cc(-c2ccc3c(c2)CN(C2CCC(=O)NC2=O)C3=O)nc1-c1ccccc1F (stereo not shown) [Example 656] | ≥ 25 | F (F = >75-100% remaining) | E (E = >25-75% remaining) | < 25
Cn1cc(-c2ccc3c(c2)CN(C2CCC(=O)NC2=O)C3=O)nc1-c1ccc2nccn2c1 (stereo not shown) [Example 658] | ≥ 25 | F (F = >75-100% remaining) | D (D = >10- 25% remaining) | ≥ 25
Cn1cc(-c2ccc3c(c2)CN(C2CCC(=O)NC2=O)C3=O)nc1-c1cncc2ccccc12 (stereo not shown) [Example 659] | ≥ 25 | F (F = >75-100% remaining) | E (E = >25-75% remaining) | < 25
Cn1cc(-c2ccc3c(c2)CN(C2CCC(=O)NC2=O)C3=O)nc1-c1ccc2ncccc2c1 (stereo not shown) [Example 660] | < 25 | E (E = >25-75% remaining) | D (D = >10- 25% remaining) | < 25
Cn1cc(-c2ccc3c(c2)CN(C2CCC(=O)NC2=O)C3=O)nc1-c1ccc(-n2cccn2)cc1 (stereo not shown) [Example 665] | ≥ 25 | D (D = >10- 25% remaining) | E (E = >25-75% remaining) | < 25
Cn1cc(-c2ccc3c(c2)CN(C2CCC(=O)NC2=O)C3=O)nc1-c1ccc(N2CCOCC2)cc1 (stereo not shown) [Example 666] | ≥ 25 | F (F = >75-100% remaining) | E (E = >25-75% remaining) | < 25
Cn1cc(-c2ccc3c(c2)CN(C2CCC(=O)NC2=O)C3=O)nc1-c1ccc(Cl)c(C(F)(F)F)c1 (stereo not shown) [Example 667] | < 25 | F (F = >75-100% remaining) | E (E = >25-75% remaining) | < 25
Cn1cc(-c2ccc3c(c2)CN(C2CCC(=O)NC2=O)C3=O)nc1-c1ccc(CN2CCOCC2)cc1 (stereo not shown) [Example 668] | ≥ 25 | F (F = >75-100% remaining) | E (E = >25-75% remaining) | < 25
Cc1ccc(N)cc1-c1nc(-c2ccc3c(c2)CN(C2CCC(=O)NC2=O)C3=O)cn1C (stereo not shown) [Example 674] | ≥ 25 | F (F = >75-100% remaining) | E (E = >25-75% remaining) | < 25
Cn1cc(-c2ccc3c(c2)CN(C2CCC(=O)NC2=O)C3=O)nc1-c1ccc(F)c(C#N)c1 (stereo not shown) [Example 677] | ≥ 25 | – | E (E = >25-75% remaining) | < 25

The next lines start with the values.

DC50 [1] [nM] | GSPT1 Ymin [1] | CK1α Ymin [2] | DC50 [2] [nM] | Compound
< 25 | E (E = >25-75% remaining) | D (D = >10- 25% remaining) | < 25 | Cn1cc(-c2ccc3c(c2)CN(C2CCC(=O)NC2=O)C3=O)nc1-c1ccccc1C(F)(F)F (stereo not shown) [Example 649]
< 25 | E (E = >25-75% remaining) | D (D = >10- 25% remaining) | < 25 | Cc1cccc(F)c1-c1nc(-c2ccc3c(c2)CN(C2CCC(=O)NC2=O)C3=O)cn1C (stereo not shown) [Example 651]
< 25 | F (F = >75-100% remaining) | D (D = >10- 25% remaining) | < 25 | Cn1cc(-c2ccc3c(c2)CN(C2CCC(=O)NC2=O)C3=O)nc1-c1ccc2ccccc2c1 (stereo not shown) [Example 652]
≥ 25 | F (F = >75-100% remaining) | E (E = >25-75% remaining) | < 25 | Cn1cc(-c2ccc3c(c2)CN(C2CCC(=O)NC2=O)C3=O)nc1-c1ccc(C#N)c(F)c1 (stereo not shown) [Example 655]
≥ 25 | F (F = >75-100% remaining) | D (D = >10- 25% remaining) | < 25 | Cn1cc(-c2ccc3c(c2)CN(C2CCC(=O)NC2=O)C3=O)nc1-c1ccc(CO)cc1 (stereo not shown) [Example 657]
≥ 25 | F (F = >75-100% remaining) | E (E = >25-75% remaining) | < 25 | Cn1cc(-c2ccc3c(c2)CN(C2CCC(=O)NC2=O)C3=O)nc1-c1ccc(Cl)c(F)c1 (stereo not shown) [Example 661]
≥ 25 | F (F = >75-100% remaining) | E (E = >25-75% remaining) | < 25 | Cn1cc(-c2ccc3c(c2)CN(C2CCC(=O)NC2=O)C3=O)nc1-c1c[nH]c2ncccc12 (stereo not shown) [Example 662]
< 25 | F (F = >75-100% remaining) | E (E = >25-75% remaining) | < 25 | Cc1ccc(-c2nc(-c3ccc4c(c3)CN(C3CCC(=O)NC3=O)C4=O)cn2C)c(N)c1 (stereo not shown) [Example 663]
≥ 25 | E (E = >25-75% remaining) | E (E = >25-75% remaining) | < 25 | Cn1cc(-c2ccc3c(c2)CN(C2CCC(=O)NC2=O)C3=O)nc1-c1ccsc1 (stereo not shown) [Example 664]
≥ 25 | F (F = >75-100% remaining) | E (E = >25-75% remaining) | ≥ 25 | Cn1cc(-c2ccc3c(c2)CN(C2CCC(=O)NC2=O)C3=O)nc1-c1cccc(C(N)=O)c1 (stereo not shown) [Example 669]
≥ 25 | F (F = >75-100% remaining) | E (E = >25-75% remaining) | < 25 | Cc1ccc(-c2nc(-c3ccc4c(c3)CN(C3CCC(=O)NC3=O)C4=O)cn2C)c(F)c1 (stereo not shown) [Example 670]
≥ 25 | F (F = >75-100% remaining) | E (E = >25-75% remaining) | < 25 | Cn1cc(-c2ccc3c(c2)CN(C2CCC(=O)NC2=O)C3=O)nc1-c1ccc2c(c1)CCCO2 (stereo not shown) [Example 671]
< 25 | F (F = >75-100% remaining) | E (E = >25-75% remaining) | < 25 | Cn1cc(-c2ccc3c(c2)CN(C2CCC(=O)NC2=O)C3=O)nc1-c1cccc2cnccc12 (stereo not shown) [Example 672]
< 25 | F (F = >75-100% remaining) | E (E = >25-75% remaining) | < 25 | COc1ccccc1-c1nc(-c2ccc3c(c2)CN(C2CCC(=O)NC2=O)C3=O)cn1C (stereo not shown) [Example 673]
< 25 | F (F = >75-100% remaining) | E (E = >25-75% remaining) | < 25 | Cc1ccc(-c2nc(-c3ccc4c(c3)CN(C3CCC(=O)NC3=O)C4=O)cn2C)cc1F (stereo not shown) [Example 675]
≥ 25 | F (F = >75-100% remaining) | E (E = >25-75% remaining) | < 25 | Cn1cc(-c2ccc3c(c2)CN(C2CCC(=O)NC2=O)C3=O)nc1-c1cccc2ccccc12 (stereo not shown) [Example 676]
